In patent US20210315816A1, “ANTIMICROBIAL COMPOSITIONS AND METHODS” (BOARD OF REGENTS OF THE UNIVERSITY OF NEBRASKA, priority 2018, published 2021):

Columns and labels:
S. aureus [1] = experiment: S. aureus biofilm formation in 96-well plates ± oligomycin; type: cell-based; details: 10 μg/mL
Procedure: C57BL/6NCrl mice received intra-articular injections of oligomycin at 7 day post-infection (100 ng), or two sequential doses at days 7 and 8 post-infection (50 ng/day), or PBS and were sacrificed at day 14 post-infection. Bacterial burdens were quantified from the surrounding soft tissue, knee, femur, and implant. Results are from one experiment (n=5 mice/group/time point); (*, p<0.05; one-way ANOVA). Additionally, S. aureus biofilm formation was assessed in 96-well plates±oligomycin treatment (bottom graphs). Oligomycin (10 μg/mL) was added to planktonic S. aureus at time 0 (left panel) or mature biofilms for 4 days (right panel) to determine effects on bacterial growth at the indicated time points following oligomycin treatment. Cultures were replenished daily with fresh medium containing oligomycin. Results are presented as Log10 colony forming units (CFU) per well (mean±SD).

[2] = test system: biofilm-associated monocytes; experiment: JC-1 and 2-NBDG staining of biofilm-associated monocytes (OxPhos, glycolysis); type: in vivo, mouse; details: days 3 or 7 after intra-articular injection at day 7 post-infection; oligomycin 100 ng
Procedure: C57BL/6NCrl mice received a single intra-articular injection of free oligomycin only (Oligo; 100 ng), empty nanoparticles (CT), empty nanoparticles (CT)+free oligomycin (100 ng; not loaded), or oligomycin loaded nanoparticles (CTO) at day 7 post-infection and were analyzed at day 3 (FIG. 12A, 12B; 5 mice/group) or 7 (FIGS. 12C, 12D; 9-10 mice/group) after treatment. FIGS. 12A, 12C: OxPhos was calculated as the ratio of […] monocytes (CD11b^highLy6G^−Ly6C^+F4/80^−) following JC-1 staining and glycolytic activity was calculated as the percentage of 2-NBDG+ monocytes. FIGS. 12B, 12D: Bacterial burdens were assessed in the surrounding soft tissue, knee, femur, and implant, where the dotted lines represent the limit of detection (LOD). All results are reported as the mean±SD (*, p<0.05; **, p<0.01; ***, p<0.001; ****, p<0.0001; One-way ANOVA).
Leukocytes recovered from animals with sterile or S. aureus infected orthopedic implants were stained with the bi-potential dye JC-1 (5,5′,6,6′-Tetrachloro-1,1′,3,3′-tetraethylbenzimidazolocarbocyanine iodide; Cat #T3168 Invitrogen) or the fluorescent glucose analog 2-NBDG (2-(N-(7-Nitrobenz-2-oxa-1,3-diazol-4-yl)Amino)-2-Deoxyglucose; Cat #N13195 ThermoFisher) to evaluate OxPhos and glycolytic activity, respectively. JC-1 emits red fluorescence in mitochondria with large membrane potentials and green fluorescence in depolarized mitochondria. […]

S. aureus USA300 LAC13c = experiment: Mouse model of S. aureus orthopedic implant biofilm infection, bacterial burdens; type: in vivo
Procedure: To model infectious complications that can arise in patients following arthroplasty, a mouse model of S. aureus orthopedic implant infection was used (Heim, et al. (2014) Methods Mol. Biol., 1106:183-191; Heim, et al. (2015) J. Leukoc. Biol., 98:1003-1013; Heim, et al. (2014) J. Immunol., 192:3778-3792; Heim, et al. (2015) J. Immunol., 194:3861-3872; Scherr, et al. (2014) Methods Mol. Biol., 1106:173-181). […] Briefly, mice were anesthetized with ketamine/xylazine (100 mg/kg and 5 mg/kg, respectively) and the surgical site was disinfected with povidone-iodine. After a surgical plane of anesthesia was achieved, a medial incision was created through the quadriceps with lateral displacement to access the distal femur. […]
Animals were placed in an induction chamber without restraint and anesthetized with 2.5% isoflurane. […] Nanoparticle injection and length of retention was evaluated in the same cohort of mice using an In Vivo Imaging System (IVIS® Spectrum; PerkinElmer, Waltham, Mass.) under isoflurane anesthesia, with excitation and emission wavelengths of 640 nm and 680 nm, respectively. […]

[3] = test system: bone marrow-derived macrophages; experiment: IL-4 pre-treated bone marrow-derived macrophages with oligomycin: TNF-α, arginase, protein yield
Procedure: Bone marrow-derived macrophages were plated overnight and the following day cells were pre-treated with IL-4 (10 ng/mL) for 1 hour followed by various concentrations of oligomycin for 24 hours, whereupon TNF-α (FIG. 2A) and arginase (FIG. 2B) expression was determined by ELISA and enzymatic assay, respectively. Data are presented as the mean±SD combined from two independent experiments (n=6 biological replicates) (*, p<0.05; **, p<0.01; ***, p<0.001; Student's t-test).
Macrophages were expanded from the bone marrow of both male and female C57BL/6NCrl mice as described (Yamada, et al. (2018) Infect. Immun., 86(7) e00206-18). At day in vitro 6, macrophages were harvested and seeded at 5×10^4 cells/well in a 96-well plate. Following an overnight adherence period, macrophages were pre-treated with 10 ng/mL recombinant mouse (rm)IL-4 (Cat #574306 BioLegend, San Diego, Calif.) for 1 hour followed by exposure to various concentrations of oligomycin (Cat #11342 Cayman Chemical) for 24 hours, whereupon medium was collected to quantify TNF-α by cytometric bead array (Cat #552364, BD Biosciences) and arginase activity (Cat #MAK112, Millipore Sigma).

S. aureus [4] = details: 10 mg/kg, cited from earlier work
[5] = IL-4 10 ng/mL 1 hour, then oligomycin 24 hours, dose-dependent

Structure (SMILES)	bactericidal activity during early biofilm formation or mature biofilms in vitro (S. aureus [1])	monocyte OxPhos activity (JC-1) [2]	biofilm burdens (S. aureus USA300 LAC13c; days 3 or 7 after intra-articular injection, oligomycin 100 ng)	bacterial burdens (S. aureus USA300 LAC13c; direct intra-articular injection, one bolus (100 ng) or two sequential doses (50 ng/day), day 14 post-infection)	toxicity to macrophages (protein yields) [3]	TNF-α expression [3, 5]	arginase activity [3, 5]	S. aureus titers in the joint (S. aureus [4])	S. aureus burdens on orthopedic implants (S. aureus [4]; near the limit of detection)
CC[C@H]1/C=C/C=C/C[C@@H](C)[C@H](O)[C@@](C)(O)C(=O)[C@@H](C)[C@H](O)[C@@H](C)C(=O)[C@@H](C)[C@H](O)[C@@H](C)/C=C/C(=O)O[C@@H]2[C@H](C)[C@H](CC1)O[C@]1(CC[C@H](C)[C@H](C[C@@H](C)O)O1)[C@H]2C [oligomycin]	no bactericidal activity	no changes	no changes	no effect on bacterial burdens	not toxic to macrophages	increasing TNF-α expression	decreasing arginase activity	–	–
CCCCCCCCCC(=O)N[C@@H](Cc1c[nH]c2ccccc12)C(=O)N[C@H](CC(N)=O)C(=O)N[C@@H](CC(=O)O)C(=O)N[C@@H]1C(=O)NCC(=O)N[C@@H](CCCN)C(=O)N[C@@H](CC(=O)O)C(=O)N[C@H](C)C(=O)N[C@@H](CC(=O)O)C(=O)NCC(=O)N[C@H](CO)C(=O)N[C@@H]([C@H](C)CC(=O)O)C(=O)N[C@@H](CC(=O)c2ccccc2N)C(=O)O[C@@H]1C [daptomycin]	–	–	–	–	–	–	–	less affected	< 10^2 CFU
